Test results published in PubChem BioAssay (NCI).
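These data come from cells grown in 96-well plates and exposed to compound for 48 hours at five concentrations. TGI: concentration producing complete growth inhibition.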

What was measured:
Experiment in all cases: growth of human tumour cells (NCI), 48 h
786-0 renal = tested on: 786-0 renal
A498 renal = tested on: A498 renal
A549 NSCLC = tested on: A549 NSCLC
ACHN renal = tested on: ACHN renal
BT-549 breast = tested on: BT-549 breast
CAKI-1 renal = tested on: CAKI-1 renal
CCRF-CEM leukemia = tested on: CCRF-CEM leukemia
COLO 205 colon = tested on: COLO 205 colon
DU-145 prostate = tested on: DU-145 prostate
EKVX NSCLC = tested on: EKVX NSCLC
HCC-2998 colon = tested on: HCC-2998 colon
HCT-116 colon = tested on: HCT-116 colon
HCT-15 colon = tested on: HCT-15 colon
HL-60(TB) leukemia = tested on: HL-60(TB) leukemia
HOP-62 NSCLC = tested on: HOP-62 NSCLC
HOP-92 NSCLC = tested on: HOP-92 NSCLC
HT29 colon = tested on: HT29 colon
IGROV1 ovarian = tested on: IGROV1 ovarian
KM12 colon = tested on: KM12 colon
LOX IMVI melanoma = tested on: LOX IMVI melanoma
M14 melanoma = tested on: M14 melanoma
MALME-3M melanoma = tested on: MALME-3M melanoma
MCF7 breast = tested on: MCF7 breast
MDA-MB-231 breast = tested on: MDA-MB-231 breast
MDA-MB-435 = tested on: MDA-MB-435
MDA-N = tested on: MDA-N
MOLT-4 leukemia = tested on: MOLT-4 leukemia
NCI-H226 lung = tested on: NCI-H226 lung
NCI-H23 lung = tested on: NCI-H23 lung
NCI-H460 lung = tested on: NCI-H460 lung
NCI-H522 lung = tested on: NCI-H522 lung
NCI/ADR-RES ovarian = tested on: NCI/ADR-RES ovarian
OVCAR-3 ovarian = tested on: OVCAR-3 ovarian
OVCAR-4 ovarian = tested on: OVCAR-4 ovarian
OVCAR-5 ovarian = tested on: OVCAR-5 ovarian
OVCAR-8 ovarian = tested on: OVCAR-8 ovarian
PC-3 prostate = tested on: PC-3 prostate
RPMI-8226 leukemia = tested on: RPMI-8226 leukemia
RXF 393 renal = tested on: RXF 393 renal
SF-268 CNS = tested on: SF-268 CNS
SF-295 CNS = tested on: SF-295 CNS
SF-539 CNS = tested on: SF-539 CNS
SK-MEL-2 melanoma = tested on: SK-MEL-2 melanoma
SK-MEL-28 melanoma = tested on: SK-MEL-28 melanoma
SK-MEL-5 melanoma = tested on: SK-MEL-5 melanoma
SK-OV-3 ovarian = tested on: SK-OV-3 ovarian
SN12C renal = tested on: SN12C renal
SNB-19 CNS = tested on: SNB-19 CNS
SNB-75 CNS = tested on: SNB-75 CNS
SR leukemia = tested on: SR leukemia
SW-620 colon = tested on: SW-620 colon
T-47D breast = tested on: T-47D breast
TK-10 renal = tested on: TK-10 renal
U251 CNS = tested on: U251 CNS
UACC-257 melanoma = tested on: UACC-257 melanoma
UACC-62 melanoma = tested on: UACC-62 melanoma
UO-31 renal = tested on: UO-31 renal

With `CCOC(=O)c1c(C)n(Cc2ccc(Cl)cc2Cl)c2c1cc(O)c1[nH]c3c(c12)CCCC3` the TGI (786-0 renal) was > 100 µM, the TGI (A498 renal) was 38.6 µM and the TGI (A549 NSCLC) was > 100 µM. The TGI (ACHN renal) was 61.2 µM, the TGI (BT-549 breast) was 41.3 µM and the TGI (CAKI-1 renal) was 56.4 µM. For the same compound, the TGI (CCRF-CEM leukemia) was 77.1 µM, the TGI (COLO 205 colon) was > 100 µM and the TGI (DU-145 prostate) was > 100 µM. For the same compound, the TGI (EKVX NSCLC) was > 100 µM, the TGI (HCC-2998 colon) was 63 µM and the TGI (HCT-116 colon) was > 100 µM. The TGI (HCT-15 colon) was > 100 µM, the TGI (HL-60(TB) leukemia) was 2.79 µM and the TGI (HOP-62 NSCLC) was 93.7 µM. The TGI (HOP-92 NSCLC) was 43 µM, the TGI (HT29 colon) was 68.2 µM and the TGI (IGROV1 ovarian) was 75.2 µM. For the same compound, the TGI (KM12 colon) was 67.2 µM, the TGI (LOX IMVI melanoma) was > 100 µM and the TGI (M14 melanoma) was 86.3 µM. For the same compound, the TGI (MALME-3M melanoma) was 43.2 µM, the TGI (MCF7 breast) was 52 µM and the TGI (MDA-MB-231 breast) was > 100 µM. It also gave a TGI (MDA-MB-435) of 55.5 µM, a TGI (MDA-N) of 45.6 µM and a TGI (MOLT-4 leukemia) of 29.4 µM. It also gave a TGI (NCI-H226 lung) of 45.5 µM, a TGI (NCI-H23 lung) of 77.6 µM and a TGI (NCI-H460 lung) of 89.9 µM. For the same compound, the TGI (NCI-H522 lung) was 38.8 µM, the TGI (NCI/ADR-RES ovarian) was 43.4 µM and the TGI (OVCAR-3 ovarian) was > 100 µM. For the same compound, the TGI (OVCAR-4 ovarian) was 41.7 µM, the TGI (OVCAR-5 ovarian) was > 100 µM and the TGI (OVCAR-8 ovarian) was 53.5 µM. The TGI (PC-3 prostate) was 40.9 µM, the TGI (RPMI-8226 leukemia) was 50.7 µM and the TGI (RXF 393 renal) was 41.2 µM. For the same compound, the TGI (SF-268 CNS) was 56.4 µM, the TGI (SF-295 CNS) was 97.2 µM and the TGI (SF-539 CNS) was 56.9 µM. The TGI (SK-MEL-2 melanoma) was 60.9 µM, the TGI (SK-MEL-28 melanoma) was 45 µM and the TGI (SK-MEL-5 melanoma) was 44.5 µM. The TGI (SK-OV-3 ovarian) was > 100 µM, the TGI (SN12C renal) was 58.6 µM and the TGI (SNB-19 CNS) was 58 µM. For the same compound, the TGI (SNB-75 CNS) was 48.6 µM, the TGI (SR leukemia) was 0.379 µM and the TGI (SW-620 colon) was > 100 µM. The TGI (T-47D breast) was > 100 µM, the TGI (TK-10 renal) was 45.4 µM and the TGI (U251 CNS) was > 100 µM. The TGI (UACC-257 melanoma) was 43.2 µM, the TGI (UACC-62 melanoma) was 49.2 µM and the TGI (UO-31 renal) was 51.3 µM.
